≈ marks a conversion by molar mass, not a printed value.
How the values were obtained:
[1] = test system: Mycobacterium tuberculosis; experiment: Antimycobacterial against GFP-transfected Mycobacterium tuberculosis H37Rv assessed as reduction in GFP protein expression and measured every 2 days for 12 days; assay type: functional
[2] = Inhibition of Mycobacterium phlei DSM-43239 C-terminal ATP-synthase assessed as reduction in luciferase activity incubated for 10 mins in presence of ATP by luminometric method; design: species or system Mycolicibacterium phlei DSM 43239 = CCUG 21000
[3] = Inhibition of ATP-synthase (unknown origin); design: species or system Homo sapiens

Question: With `COc1ccc(S(=O)(=O)N2CCCCCC2)cc1NC(=O)Cc1nnc(O)c2ccccc12` as the compound, how does the MIC [1] read?
Answer: 250 µM (≈ 118 µg/mL)

Question: With `COc1nc2ccc(Br)cc2cc1[C@@H](c1ccccc1)[C@@](O)(CCN(C)C)c1cccc2ccccc12` [BEDAQUILINE] as the compound, how does the IC50 [2] read?
Answer: 20 to 25 nM

Question: And the IC50 [3]?
Answer: > 200000 nM
